Assay results reported in article PMC3502260, “Plasmodium serine hydroxymethyltransferase as a potential anti-malarial target: inhibition studies using improved methods for enzyme production and assay” (Malaria Journal, 2012).

Legend:
PvSHMT [1] = biological target: T1, PvSHMT (Plasmodium vivax, UniProt A5K8L9); experiment: PLP fluorescence quenching; format: binding; settings: 10 mM ligand, ~23 μM enzyme, 25 °C, 50 mM HEPES pH 7
T1 construct: gene PVX_100730; recombinant, expressed in E. coli BL21(DE3) as in an earlier report; dimer
T1 sequence (A5K8L9 1-442): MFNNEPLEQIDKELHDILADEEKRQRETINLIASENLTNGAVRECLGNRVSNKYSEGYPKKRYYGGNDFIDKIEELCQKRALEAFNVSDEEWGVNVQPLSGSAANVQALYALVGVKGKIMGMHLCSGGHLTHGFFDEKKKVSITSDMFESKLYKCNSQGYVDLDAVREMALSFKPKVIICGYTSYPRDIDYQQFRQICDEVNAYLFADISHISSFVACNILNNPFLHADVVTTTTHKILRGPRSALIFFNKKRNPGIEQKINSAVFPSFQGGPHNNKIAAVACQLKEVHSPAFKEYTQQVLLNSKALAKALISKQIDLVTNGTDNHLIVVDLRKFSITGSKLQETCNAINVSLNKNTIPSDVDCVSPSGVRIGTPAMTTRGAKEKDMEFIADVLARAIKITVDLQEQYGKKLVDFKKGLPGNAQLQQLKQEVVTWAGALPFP

PfSHMT [2] = biological target: T2, PfSHMT (Plasmodium falciparum, UniProt Q8I566); experiment: PLP fluorescence quenching; format: binding; settings: 10 mM ligand, ~23 μM enzyme, 25 °C, 50 mM HEPES pH 7
T2 construct: gene SHMT; recombinant, expressed in E. coli BL21(DE3) as in an earlier report, purified on Ni-Sepharose; dimer
T2 sequence (Q8I566 1-442): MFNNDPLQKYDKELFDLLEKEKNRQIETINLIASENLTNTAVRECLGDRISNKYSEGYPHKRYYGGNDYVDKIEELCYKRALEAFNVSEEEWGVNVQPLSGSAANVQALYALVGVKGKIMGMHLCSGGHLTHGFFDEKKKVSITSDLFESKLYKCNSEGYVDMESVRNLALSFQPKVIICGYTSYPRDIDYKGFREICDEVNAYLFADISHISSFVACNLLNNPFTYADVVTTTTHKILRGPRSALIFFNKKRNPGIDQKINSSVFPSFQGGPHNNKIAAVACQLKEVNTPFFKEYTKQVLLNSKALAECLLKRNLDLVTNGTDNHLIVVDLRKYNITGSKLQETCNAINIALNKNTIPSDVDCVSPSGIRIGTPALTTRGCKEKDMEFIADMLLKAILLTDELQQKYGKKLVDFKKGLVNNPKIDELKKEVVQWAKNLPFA

PvSHMT [3] = biological target: T1, PvSHMT; experiment: time-dependent inactivation, SHMT-MTHFD coupled assay; format: biochemical; settings: covalent; time-dependent inactivation by reaction with PLP; preincubation 5-30 min; 25 °C, 50 mM HEPES pH 7
PfSHMT [4] = biological target: T2, PfSHMT; experiment: as above; format: biochemical; settings: covalent; time-dependent inactivation by reaction with PLP; preincubation 5-30 min; 25 °C, 50 mM HEPES pH 7
PfSHMT [5] = biological target: T2, PfSHMT; experiment: SHMT-MTHFD coupled assay, initial rates; format: biochemical; settings: read-out: % inhibition at 0.1 mM
PvSHMT [6] = biological target: T1, PvSHMT; experiment: SHMT-MTHFD coupled assay, initial rates; format: biochemical; settings: read-out: % inhibition at 0.25 mM

Row | Compound | PLP fluorescence quenching (PvSHMT [1]) | PLP fluorescence quenching (PfSHMT [2]) | other results
1 | NCC(=O)O [glycine] | the fluorescence signal of Pf- and PvSHMT was quenched | for PfSHMT the binding of glycine caused the largest decrease in fluorescence intensity | –
2 | NNC(N)=S [thiosemicarbazide] | – | – | KI (inactivation) (PvSHMT [3]): 210 ± 80 µM; KI (inactivation) (PfSHMT [4]): 360 ± 70 µM
3 | CCOc1cc(Cc2cnc(N)nc2N)ccc1OCCCc1ccccc1 [CT-55-59-42] | – | – | inhibition at 100 µM (PfSHMT [5]): 40%
4 | C[C@H](N)C(=O)O [L-alanine] | the fluorescence signal of Pf- and PvSHMT was quenched | Upon addition of amino acids (L-, D-serine, L-alanine, and glycine), the fluorescence signal of Pf- | –
5 | N[C@@H](CO)C(=O)O [L-serine] | – | Upon addition of amino acids (L-, D-serine, L-alanine, and glycine), the fluorescence signal of Pf- | –
6 | CCc1nc(N)nc(N)c1OCCCOc1ccnc2ccccc12 [TV-P-0-113] | – | – | inhibition at 250 µM (PvSHMT [6]): 40%
7 | N[C@H](CO)C(=O)O [D-serine] | the fluorescence signal of Pf- and PvSHMT was quenched | Upon addition of amino acids (L-, D-serine, L-alanine, and glycine), the fluorescence signal of Pf- | –
8 | CCCCOc1cc(Cc2cnc(N)nc2N)ccc1OCc1cc(OC)c(OC)c(OC)c1 [CT-57-59-38] | – | – | inhibition at 100 µM (PfSHMT [5]): 40%
